Laboratory results taken from publication PMC12495412, “Coumarin/nitrogen-bearing heterocyclic hybrid-loaded electrospun PMMA/PVP nanofibrous scaffolds for accelerating topical wound healing rates: synthesis and in vitro bio-evaluation” (RSC Advances, 2025).
Converted amounts (≈) assume the structure as drawn.

What was measured:
Wi-38 cells = assay: MTT cytotoxicity assay, normal cells; type: cell-based; conditions: 48 h; for IC50 Wi-38: normal human lung fibroblast cells
Source text: (§1) MTT assay: the normal cell line (Wi-38), colon cancer (Caco-2), lung cancer (A549), and breast cancer (MDA) cell lines were sourced from ATCC, USA. All different cell lines were cultivated and preserved in DMEM medium (SERANA, Germany), accompanied by 10% FBS (Gibco, USA) and 1% Pen/Strep solution (Lonza, USA). The newly prepared derivatives at various doses were considered for their anticancer activity and their safety on normal cells, applying MTT (3-[4, 5-dimethylthiazol]-2, 5-diphenyltetrazolium bromide) methods.[22] At first, all normal and cancer cell lines (1.0 ×10^4) were inoculated in 4 antiseptic 96-well tissue culture microplates and incubated for 24 h in a CO2 incubator. After cell attachments, the prepared derivatives were added to both normal Wi-38 cells at diverse concentrations of (6.25–200 μg mL^−1, 2-fold) and cancer cells at different concentrations of (3.125–100 μg mL^−1, 2-fold) in triplicate and incubated for another 48 h at 37 °C in a CO2 incubator with an adjusted concentration of 5%. After that, the treated cells were cleaned three times with PBS to remove debris and dead cells. Next, 200 μL of 0.5 mg mL^−1 MTT dye solution in PBS was mixed in each well, and the cells were further kept for 3 h at 37 °C in a 5% CO2 incubator. After that, MTT was removed and 200 μL of DMSO was added to each well. The optical density (OD) was recorded at 570 nm via a microplate reader (B.M.G. LabTech, Germany). Basic cells (untreated) were utilized as negative control cells, and 5-fluorouracil (5-FU) was included as a standard chemotherapy drug. The qualified cell viability (%) was evaluated as in equation (eqn (1)):1 Relative cell viability (%) = […] A1 is the OD of the examined derivative, A0 is the OD of the standard, and AU is the OD of the untreated cells.
(§2) Anticancer activity assay: the anticancer effect of each derivative was assessed by evaluating the half-maximal inhibitory concentration (IC50) value via the GraphPad Prism 7.0 software. However, SI (selective index) values of each derivative were estimated by splitting the IC50 value of healthy cells by the IC50 value of malignant cells, as previously reported.[23] The effects of the created derivatives on the morphology of MDA cells were evaluated at IC50 doses and captured by phase-contrast microscopy (Olympus, Germany) in comparison to untreated control cells.

Caco-2 cells = assay: MTT anticancer assay; type: cell-based; conditions: for SI Caco-2: IC50 Wi-38 / IC50 Caco-2
Source text: as §1, §2

A549 cells [1] = assay: MTT anticancer assay; type: cell-based, human; conditions: 48 h; for IC50 A549: lung carcinoma cells
Source text: as §1, §2

MDA cells = assay: MTT anticancer assay; type: cell-based, human; conditions: 48 h; for IC50 MDA: breast carcinoma cells
Source text: as §1, §2

S. aureus = assay: Agar-well diffusion of synthesized compounds; type: cell-based, Staphylococcus aureus ATCC 25923; conditions: 100 μL of 10 mg mL^−1 per well, 24 h, 37 °C
Source text: The antimicrobial activity of the prepared compounds was estimated through an agar-well diffusion method as adapted from the modified Kirby–Bauer protocol.[24] In this test, microbial pathogens were applied, including Staphylococcus aureus ATCC 25923 (S. aureus), Streptococcus mutans ATCC 25175 (S. mutans), Bacillus cereus ATCC 19637 (B. cereus), Bacillus aureus ATCC 25923 (B. aureus), Bacillus epidermidis ATCC 14990 (B. epidermidis), and Bacillus subtilis ATCC 11774 (B. subtilis) as Gram-positive bacteria, and Pseudomonas aeruginosa ATCC 27853 (P. aeruginosa), Klebsiella pneumonia ATCC 13883 (K. pneumonia), and Salmonella typhimurium ATCC 14028 (S. typhimurium), Salmonella pneumoniae ATCC 10031(S. pneumoniae), Escherichia coli ATCC 10536 (E. coli), and Salmonella paratyphi ATCC 9150 (S. paratyphi) as Gram-negative bacteria. Additionally, Candida albicans (ATCC 10231), Candida krusei ATCC 6258 (C. krusei), Candida glabrata ATCC 66032 (C. glabrata), andCandida parapsilosis ATCC 22019 (C. parapsilosis) were applied as models of unicellular fungi. The pre-inoculation cultures of the pathogens were prepared on Muller–Hinton broth and cultivated for 24 h at 37 °C. The agar-well test was prepared on Muller–Hinton agar with 100 μL of each pathogen pre-culture (0.5 McFarland conc.) and uniformly distributed on the plate surface. […]

A549 cells [2] = assay: Wound healing scratch (anti-migration) assay; type: cell-based, human; conditions: IC50 doses, 48 h
Experimental: To assess the anti-migration inhibition capability of newly synthesized derivatives, a wound healing technique was employed. A549 cells were planted in 12-well plates and kept alive at 37 °C until they achieved 80–90% fluency. The cell monolayers were smashed with a sterile tip and exposed to the prepared derivatives at IC50 doses. At 0 and 48 h of treatment, the wound closure area was captured and calculated by imaging analysis with the Cell-Sens software (Olympus, Japan).

S. mutans = assay: Agar-well diffusion of synthesized compounds; type: cell-based, Streptococcus mutans ATCC 25175; conditions: 100 μL of 10 mg mL^−1 per well, 24 h, 37 °C
Source text: The antimicrobial activity of the prepared compounds was estimated through an agar-well diffusion method as adapted from the modified Kirby–Bauer protocol.[24] In this test, microbial pathogens were applied, including Staphylococcus aureus ATCC 25923 (S. aureus), Streptococcus mutans ATCC 25175 (S. mutans), Bacillus cereus ATCC 19637 (B. cereus), Bacillus aureus ATCC 25923 (B. aureus), Bacillus epidermidis ATCC 14990 (B. epidermidis), and Bacillus subtilis ATCC 11774 (B. subtilis) as Gram-positive bacteria, and Pseudomonas aeruginosa ATCC 27853 (P. aeruginosa), Klebsiella pneumonia ATCC 13883 (K. pneumonia), and Salmonella typhimurium ATCC 14028 (S. typhimurium), Salmonella pneumoniae ATCC 10031(S. pneumoniae), Escherichia coli ATCC 10536 (E. coli), and Salmonella paratyphi ATCC 9150 (S. paratyphi) as Gram-negative bacteria. Additionally, Candida albicans (ATCC 10231), Candida krusei ATCC 6258 (C. krusei), Candida glabrata ATCC 66032 (C. glabrata), andCandida parapsilosis ATCC 22019 (C. parapsilosis) were applied as models of unicellular fungi. The pre-inoculation cultures of the pathogens were prepared on Muller–Hinton broth and cultivated for 24 h at 37 °C. The agar-well test was prepared on Muller–Hinton agar with 100 μL of each pathogen pre-culture (0.5 McFarland conc.) and uniformly distributed on the plate surface. Under aseptic conditions, six wells were created on the agar surface using a sterile corkborer (9 mm). To each well, 100 μL of the prepared compound (10 mg mL^−1) was separately inserted into each plate. All plates were incubated for 24 h at 37 °C; the established inhibition zones (Halo-zones) surrounding the wells indicated positive antimicrobial activity and were stated as the radius of the inhibition zone (mm).

[3] = colon carcinoma cells, MTT, 48 h

IC50 (Caco-2 cells; Homo sapiens, Caco-2, colon carcinoma cells, MTT, 48 h)	SI Caco-2 (Caco-2 cells)	IC50 (A549 cells [1]; Homo sapiens, A549, lung carcinoma cells)	IC50 (MDA cells; Homo sapiens, Breast carcinoma cell)	SMILES	IC50 (Wi-38 cells; WI-38, normal human lung fibroblast cells)	IC50 Wi-38 (Wi-38 cells)	IC50 Caco-2 (Caco-2 cells; [3])	IC50 A549 (A549 cells [1])	IC50 MDA (MDA cells)	Inhibition zone (S. aureus)	Migration inhibition (A549 cells [2])	Inhibition zone (S. mutans)
6.13 ± 0.28 µg/mL (≈ 47.1 µM)	0.85 ± 0.03	5.74 ± 0.24 µg/mL (≈ 44.1 µM)	5.89 ± 0.19 µg/mL (≈ 45.3 µM)	O=c1[nH]cc(F)c(=O)[nH]1 [Compound 5-FU, 5-fluorouracil, reference compound]	5.23 ± 0.18 µg/mL (≈ 40.2 µM)							
	4.59 ± 0.37			Nc1ccc(Nc2ccnc3cc(Cl)ccc23)cc1 [Compound A1]		175.3 ± 14.08 µg/mL (≈ 650 µM)	38.23 ± 1.64 µg/mL (≈ 142 µM)	32.05 ± 2.18 µg/mL (≈ 119 µM)	14.91 ± 0.96 µg/mL (≈ 55.3 µM)			

SMILES	IC50 (Caco-2 cells; Homo sapiens, Caco-2, colon carcinoma cells, MTT, 48 h)	SI Caco-2 (Caco-2 cells)	IC50 (A549 cells [1]; Homo sapiens, A549, lung carcinoma cells)	IC50 (MDA cells; Homo sapiens, Breast carcinoma cell)	IC50 (Wi-38 cells; WI-38, normal human lung fibroblast cells)	IC50 Wi-38 (Wi-38 cells)	IC50 Caco-2 (Caco-2 cells; [3])	IC50 A549 (A549 cells [1])	IC50 MDA (MDA cells)	Inhibition zone (S. aureus)	Migration inhibition (A549 cells [2])	Inhibition zone (S. mutans)
Nc1ccc(Nc2c3ccccc3nc3ccccc23)cc1 [Compound B1]		8.07 ± 0.59				195.0 ± 14.41 µg/mL (≈ 683 µM)	24.15 ± 1.76 µg/mL (≈ 84.6 µM)	16.93 ± 1.88 µg/mL (≈ 59.3 µM)	8.92 ± 0.67 µg/mL (≈ 31.3 µM)	about 13 mm	74.63%	about 13 mm
